How the values were obtained:
EphB4 = EphB4 (Homo sapiens (Human), UniProt P54760); experiment: EphB4 kinase inhibition, 33P phosphoryl transfer assay (radiometric); format: biochemical
EGFR = EGFR (Homo sapiens (Human), UniProt P00533); experiment: EGFR kinase inhibition, luciferase-coupled chemiluminescent assay (LCCA); settings: read-out: EGFR IC50
EphA2 = EphA2 (Homo sapiens (Human), UniProt P29317); experiment: EphA2 kinase inhibition, luciferase-coupled chemiluminescent assay (LCCA); settings: read-out: EphA2 IC50
EphA2, sequence (P29317 598-890): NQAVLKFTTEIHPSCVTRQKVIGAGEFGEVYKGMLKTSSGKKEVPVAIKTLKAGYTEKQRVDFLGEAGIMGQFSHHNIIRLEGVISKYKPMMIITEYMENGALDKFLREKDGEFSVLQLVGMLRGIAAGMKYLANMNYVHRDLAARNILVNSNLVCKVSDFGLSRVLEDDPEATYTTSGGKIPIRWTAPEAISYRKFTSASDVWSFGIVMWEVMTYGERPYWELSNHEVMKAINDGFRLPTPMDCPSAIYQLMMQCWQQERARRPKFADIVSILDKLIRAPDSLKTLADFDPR

EGFR, sequence (P00533 672-1210): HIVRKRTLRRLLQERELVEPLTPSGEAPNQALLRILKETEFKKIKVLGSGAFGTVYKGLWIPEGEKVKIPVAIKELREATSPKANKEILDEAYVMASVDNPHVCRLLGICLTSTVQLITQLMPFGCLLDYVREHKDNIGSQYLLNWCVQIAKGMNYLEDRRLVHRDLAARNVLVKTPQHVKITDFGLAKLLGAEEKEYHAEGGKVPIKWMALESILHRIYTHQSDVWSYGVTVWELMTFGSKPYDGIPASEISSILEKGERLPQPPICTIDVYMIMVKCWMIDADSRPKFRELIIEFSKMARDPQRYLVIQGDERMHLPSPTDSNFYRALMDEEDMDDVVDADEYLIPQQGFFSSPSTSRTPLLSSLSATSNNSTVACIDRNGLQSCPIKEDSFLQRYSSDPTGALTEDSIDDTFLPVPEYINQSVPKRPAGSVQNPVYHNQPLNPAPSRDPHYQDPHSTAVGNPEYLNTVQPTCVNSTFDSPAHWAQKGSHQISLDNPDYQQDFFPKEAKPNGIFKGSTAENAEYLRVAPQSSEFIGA
EphB4, sequence (P54760 605-890): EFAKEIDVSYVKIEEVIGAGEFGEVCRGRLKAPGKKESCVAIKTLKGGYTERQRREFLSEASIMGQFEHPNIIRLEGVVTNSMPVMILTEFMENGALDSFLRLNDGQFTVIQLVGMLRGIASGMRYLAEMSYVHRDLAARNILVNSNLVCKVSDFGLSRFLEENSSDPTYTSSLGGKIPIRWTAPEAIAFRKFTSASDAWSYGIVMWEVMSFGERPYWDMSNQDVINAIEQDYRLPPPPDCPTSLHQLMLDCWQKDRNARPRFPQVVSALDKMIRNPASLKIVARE

Structure (SMILES)	IC50 (EphB4) [nM]	IC50 (EGFR) [nM]	IC50 (EphA2) [nM]
CCN1CCN(c2nc(COc3cc4ncnc(Nc5ccc(Cl)c(Cl)c5)c4cc3OC)cs2)CC1 [Example 267, N-(3,4-dichlorophenyl)-7-({[2-(4-ethylpiperazin-1-yl)-1,3-thiazol-4-yl]methyl}oxy)-6-(methyloxy)quinazolin-4-amine]	1000 to 20000	< 50	1000 to 20000
COc1cc2c(Nc3ccc(Cl)c(Cl)c3)ncnc2cc1OCC1CN(CCOCCO)CCO1 (stereo not drawn) [Example 275, 2-({2-[2-({[4-[(3,4-dichlorophenyl)amino]-6-(methyloxy)quinazolin-7-yl]oxy}methyl)morpholin-4-yl]ethyl}oxy)ethanol]	1000 to 20000	< 50	1000 to 20000
CCN1CCOC(COc2cc3ncnc(Nc4ccc(Cl)c(Cl)c4)c3cc2OC)C1 (stereo not drawn) [Example 212, N-(3,4-dichlorophenyl)-7-{[(4-ethylmorpholin-2-yl)methyl]oxy}-6-(methyloxy)quinazolin-4-amine]	50 to 1000	< 50	50 to 1000
COc1cc2c(Nc3ccc(Cl)c(Cl)c3)ncnc2cc1OCc1noc(-c2c(C)noc2C)n1 [Example 224, N-(3,4-dichlorophenyl)-7-({[5-(3,5-dimethylisoxazol-4-yl)-1,2,4-oxadiazol-3-yl]methyl}oxy)-6-(methyloxy)quinazolin-4-amine]	50 to 1000	< 50	50 to 1000
COc1cc2c(Nc3ccc(Cl)c(Cl)c3)ncnc2cc1OCc1nc(-c2cccnc2)cs1 [Example 201, N-(3,4-dichlorophenyl)-6-(methyloxy)-7-{[(4-pyridin-3-yl-1,3-thiazol-2-yl)methyl]oxy}quinazolin-4-amine]	50 to 1000	< 50	50 to 1000

Continued, values first:

IC50 (EphB4) [nM]	IC50 (EGFR) [nM]	IC50 (EphA2) [nM]	Structure (SMILES)
50 to 1000	< 50	50 to 1000	COc1cc2c(Nc3cccc(Cl)c3F)ncnc2cc1O[C@H]1CO[C@H]2[C@@H]1OC[C@@H]2OC [Example 71, 1,4:3,6-dianhydro-2-O-[4-[(3-chloro-2-fluorophenyl)amino]-6-(methyloxy)quinazolin-7-yl]-5-O-methyl-L-iditol]
1000 to 20000	< 50	1000 to 20000	CCN1CCCCC1c1nc(COc2cc3ncnc(Nc4ccc(Cl)c(Cl)c4)c3cc2OC)cs1 (stereo not drawn) [Example 253, N-(3,4-dichlorophenyl)-7-({[2-(1-ethylpiperidin-2-yl)-1,3-thiazol-4-yl]methyl}oxy)-6-(methyloxy)quinazolin-4-amine]
50 to 1000	< 50	50 to 1000	COc1cc2c(Nc3ccc(Cl)c(Cl)c3)ncnc2cc1OCc1nc(N(C)C)no1 [Example 206, N-(3,4-dichlorophenyl)-7-({[3-(dimethylamino)-1,2,4-oxadiazol-5-yl]methyl}oxy)-6-(methyloxy)quinazolin-4-amine]
50 to 1000	< 50	1000 to 20000	COc1cc2c(Nc3ccc(Cl)c(Cl)c3)ncnc2cc1OCc1csc([C@@H]2CCCN2C)n1 [Example 266, N-(3,4-dichlorophenyl)-6-(methyloxy)-7-[({2-[(2S)-1-methylpyrrolidin-2-yl]-1,3-thiazol-4-yl}methyl)oxy]quinazolin-4-amine]
< 50	< 50	< 50	COc1cc2c(Nc3cc(Cl)ccc3Cl)ncnc2cc1O[C@@H]1CO[C@@H]2[C@H]1OC[C@H]2F [Example 118, 1,4:3,6-dianhydro-2-deoxy-5-O-[4-[(2,5-dichlorophenyl)amino]-6-(methyloxy)quinazolin-7-yl]-2-fluoro-D-iditol]
50 to 1000	< 50	1000 to 20000	COc1cc2c(Nc3ccc(Cl)c(Cl)c3)ncnc2cc1OCC1CN(CCCCCC#N)CCO1 (stereo not drawn) [Example 277, 6-[2-({[4-[(3,4-dichlorophenyl)amino]-6-(methyloxy)quinazolin-7-yl]oxy}methyl)morpholin-4-yl]hexanenitrile]

Reference: patent US9796704B2, “Substituted quinazolines as receptor-type kinase inhibitors” (Symphony Evolution, Inc., priority 2002, dated 2017)
